pIC50: −log10 of the molar value. Like-named read-outs stand apart in the source and are kept apart here.
Key:
[1] = test system: P. falciparum female gametocytes; assay: P. falciparum Dual Gamete Formation Assay (PfDGFA), female readout (Pfs25-positive female gametes); format: cell-based, Plasmodium falciparum NF54
In short: (§1)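 Two sex-specific readouts come from one well: male exflagellation centres recorded by brightfield video right after activation, and female gametes scored by Cy3-anti-Pfs25 fluorescence after 24 h at 28°C.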

[2] = test system: P. falciparum male gametocytes; assay: P. falciparum Dual Gamete Formation Assay (PfDGFA), male readout (exflagellation); format: cell-based, Plasmodium falciparum NF54; conditions: for Activity: hit = >50% inhibition in male or female readout in at least 3 replicates, 0 = no class assigned
In short: as §1

[3] = PfDGFA at 2µM, 24h preincubation with gametocytes, average of replicates
[4] = PfDGFA at 2µM, 24h preincubation with gametocytes, replicate R1
[5] = PfDGFA at 2µM, 24h preincubation with gametocytes, replicate R3
[6] = PfDGFA at 2µM, 24h preincubation with gametocytes, replicate R4
[7] = number of replicates with >50% inhibition in the female readout, 2µM
[8] = number of replicates with >50% inhibition in the male readout, 2µM
[9] = 2µM, 24h preincubation with gametocytes prior to induction of gametogenesis, average of replicates
[10] = 2µM, 24h preincubation with gametocytes prior to induction of gametogenesis, replicate R1
[11] = 2µM, 24h preincubation with gametocytes prior to induction of gametogenesis, replicate R3
[12] = 2µM, 24h preincubation with gametocytes prior to induction of gametogenesis, replicate R4
[13] = 2µM, 24h preincubation, hits selected on >50% inhibition in the female readout across replicates
[14] = 2µM, 24h preincubation, hits selected on >50% inhibition in the male readout across replicates
[15] = PfDGFA at 2µM, 24h preincubation
[16] = 2µM, 24h preincubation, number of replicates with >50% inhibition in the female readout
[17] = 2µM, 24h preincubation, number of replicates with >50% inhibition in the male readout
[18] = PfDGFA at 2µM, 24h preincubation with gametocytes prior to induction of gametogenesis, replicate R1
[19] = PfDGFA at 2µM, 24h preincubation with gametocytes prior to induction of gametogenesis, replicate R3
[20] = PfDGFA at 2µM, 24h preincubation with gametocytes prior to induction of gametogenesis, replicate R4
[21] = PfDGFA at 2µM, 24h preincubation, average of replicates

Row | SMILES | Average inhibition female (%) [1, 9] | % inhibition female (individual replicates) R1 [1, 10] | % inhibition female (individual replicates) R3 [1, 11] | % inhibition female (individual replicates) R4 [1, 12] | Average inhibition male (%) [2, 9] | % inhibition male (individual replicates) R1 [2, 10] | % inhibition male (individual replicates) R3 [2, 11] | % inhibition male (individual replicates) R4 [2, 12] | HitlevelF [1, 16] | HitlevelM [2, 17] | other results
1 | Cc1cccc2nc(-c3ccc(-c4ccc(CN5CCC(CCN6CCCCC6)CC5)cc4)cc3)[nH]c12.O=C(O)C(F)(F)F [TCMDC-133929] | – | – | – | – | – | – | – | – | – | – | Average inhibition female (%) [1, 3]: 48.2%; % inhibition female (individual replicates) R1 [1, 4]: 36.0%; % inhibition female (individual replicates) R3 [1, 5]: 37.3%; % inhibition female (individual replicates) R4 [1, 6]: 59.9%; HitlevelF [1, 7]: 2; Average inhibition male (%) [2, 3]: 89.3%; % inhibition male (individual replicates) R1 [2, 4]: 91.7%; % inhibition male (individual replicates) R3 [2, 5]: 68.3%; % inhibition male (individual replicates) R4 [2, 6]: 101.6%; HitlevelM [2, 8]: 4
2 | FC(F)(F)c1ccc2[nH]c(-c3ccc(-c4cccc(CN5CCC(CCN6CCCCC6)CC5)c4)cc3)nc2c1.O=C(O)C(F)(F)F [TCMDC-133941] | – | – | – | – | – | – | – | – | – | – | Average inhibition female (%) [1, 3]: 50.7%; % inhibition female (individual replicates) R1 [1, 4]: 37.2%; % inhibition female (individual replicates) R3 [1, 5]: 33.9%; % inhibition female (individual replicates) R4 [1, 6]: 67.8%; HitlevelF [1, 7]: 2; Average inhibition male (%) [2, 3]: 80.4%; % inhibition male (individual replicates) R1 [2, 4]: 88.3%; % inhibition male (individual replicates) R3 [2, 5]: 55.8%; % inhibition male (individual replicates) R4 [2, 6]: 84.9%; HitlevelM [2, 8]: 4
3 | O=C(O)C(F)(F)F.Oc1ccc(CCNc2nc(NCCCOc3cc(CN4CCCCC4)ccc3F)nc(N3CCNCC3)n2)cc1 [TCMDC-134044] | 16.2% | 9.4% | -11.0% | 47.6% | 22.7% | 35.5% | -22.2% | 28.2% | – | – | HitlevelF [1, 13]: 0; HitlevelM [2, 14]: 0; Activity [2, 15]: 0
4 | Cc1c(Cl)cccc1S(=O)(=O)Nc1ccc(CCN2CCC(N)CC2)cc1.Cl [TCMDC-134083] | 33.7% | 28.3% | 44.7% | 16.4% | 39.0% | 41.2% | 34.9% | 36.9% | 0 | 0 | –
5 | Cl.NC1CCN(CCc2ccc(NS(=O)(=O)c3cccc4ccccc34)cc2)CC1 [TCMDC-134084] | 19.4% | 15.4% | 22.2% | 21.1% | 20.4% | 10.3% | – | 7.9% | 0 | 0 | –
6 | Cl.NC1CCN(CCc2ccc(NS(=O)(=O)c3ccc(-c4ccccc4)cc3)cc2)CC1 [TCMDC-134085] | 47.2% | 28.9% | 50.6% | 70.5% | 44.1% | 43.6% | 36.7% | 44.2% | 2 | 1 | –
7 | COc1ccc(-c2cnc(NCc3ccccc3)nc2)cc1CNC1CCN(C)CC1.O=C(O)C(F)(F)F [TCMDC-134121] | 23.3% | 22.9% | 24.0% | 18.0% | 49.5% | 40.8% | – | 53.6% | 0 | 2 | –
8 | CS(=O)(=O)Cc1ccc(Nc2ncc(Cl)c(Nc3cccnc3C(N)=O)n2)cc1.Cl [TCMDC-134165] | – | – | – | – | – | – | – | – | – | – | Selectivity ratio F ([1]; HepG2 Tox50 versus female IC50): 10.00; inhibition at 2 µM ([1]; Plasmodium falciparum, 2µM, 24h preincubation with gametocytes, average of replicates, read-out: Average inhibition female (%)): -4.3%; inhibition at 2 µM ([1]; Plasmodium falciparum, 2µM, 24h preincubation with gametocytes, replicate R1, read-out: % inhibition female (individual replicates) R1): -8.1%; inhibition at 2 µM ([1]; Plasmodium falciparum, 2µM, 24h preincubation with gametocytes, replicate R2, read-out: % inhibition female (individual replicates) R2): -1.5%; inhibition at 2 µM ([1]; Plasmodium falciparum, 2µM, 24h preincubation with gametocytes, replicate R3, read-out: % inhibition female (individual replicates) R3): -18.7%; inhibition at 2 µM ([1]; Plasmodium falciparum, 2µM, 24h preincubation with gametocytes, replicate R4, read-out: % inhibition female (individual replicates) R4): 10.9%; pIC50 ([1]; Plasmodium falciparum, PfDGFA, 24 h incubation with gametocytes before induction, female gamete readout, read-out: Female IC50): < 5.00; Selectivity Ratio M ([2]; HepG2 Tox50 versus male IC50): 16.00; inhibition at 2 µM ([2]; Plasmodium falciparum, 2µM, 24h preincubation with gametocytes, average of replicates, read-out: Average inhibition male (%)): 92.8%; inhibition at 2 µM ([2]; Plasmodium falciparum, 2µM, 24h preincubation with gametocytes, replicate R1, read-out: % inhibition male (individual replicates) R1): 89.8%; inhibition at 2 µM ([2]; Plasmodium falciparum, 2µM, 24h preincubation with gametocytes, replicate R2, read-out: % inhibition male (individual replicates) R2): 95.7%; inhibition at 2 µM ([2]; Plasmodium falciparum, 2µM, 24h preincubation with gametocytes, replicate R3, read-out: % inhibition male (individual replicates) R3): 93.3%; inhibition at 2 µM ([2]; Plasmodium falciparum, 2µM, 24h preincubation with gametocytes, replicate R4, read-out: % inhibition male (individual replicates) R4): 92.2%; pIC50 ([2]; Plasmodium falciparum, PfDGFA, 24 h incubation with gametocytes before induction, exflagellation readout, read-out: Male IC50): 5.20
9 | CS(=O)(=O)Cc1cccc(Nc2ncc(Cl)c(Nc3cccnc3C(N)=O)n2)c1.Cl [TCMDC-134166] | – | – | – | – | – | – | – | – | – | – | % inhibition female (individual replicates) R1 [1, 18]: 12.6%; % inhibition female (individual replicates) R3 [1, 19]: -16.8%; % inhibition female (individual replicates) R4 [1, 20]: 3.4%; Average inhibition female (%) [1, 21]: 1.1%; % inhibition male (individual replicates) R1 [2, 18]: 26.3%; % inhibition male (individual replicates) R3 [2, 19]: 45.1%; % inhibition male (individual replicates) R4 [2, 20]: 42.9%; Average inhibition male (%) [2, 21]: 37.5%
10 | CC[C@H](C)CNC(=O)c1ccnc(-c2ccc(CN3CCC(N4CCCC4)CC3)cc2)c1.O=C(O)C(F)(F)F [TCMDC-134250] | 14.3% | 14.5% | 6.5% | 6.6% | -12.4% | -12.1% | -7.9% | -29.8% | – | – | HitlevelF [1, 13]: 0; HitlevelM [2, 14]: 0; Activity [2, 15]: 0
11 | CC1CCCC(C)N1C[C@@H](O)CNS(=O)(=O)c1cccc(C(F)(F)F)c1.Cl (stereo partly drawn) [TCMDC-134258] | 4.2% | 10.4% | -24.4% | 21.9% | 5.6% | -0.6% | 1.0% | 12.9% | – | – | HitlevelF [1, 13]: 0; HitlevelM [2, 14]: 0; Activity [2, 15]: 0
12 | CN(C)CCC1CCN(CCS(=O)(=O)c2cccc(Nc3ncc(-c4cccc(F)c4)cn3)c2)CC1 [TCMDC-134374] | 19.0% | 15.2% | 18.5% | 17.0% | 10.6% | 1.8% | -1.4% | 25.6% | 0 | 0 | –
